Source: paper PMC11928584, “H105A peptide eye drops promote photoreceptor survival in murine and human models of retinal degeneration” (Communications Medicine, 2025)
Where a SMILES comes first, the peptide text is derived from it.

Assays:
[1] = tested on: PEDF-R; details: cited from earlier work
[2] = tested on: photoreceptors of rd10 mice; assay: PSVue-550 fluorescence fundoscopy of photoreceptor cell death (PS externalization); type: in vivo, mouse; details: for PS externalization / photoreceptor cell death vs vehicle: daily eye drops 5 µl of 1 mg/ml from P15, PSVue-550 fundoscopy P21
Excerpt: (§1) Fluorescence fundoscopy with a cell death probe was chosen as a simple method for monitoring photoreceptor cell death in alive animals. A fluorescent probe, bis (zinc^2+-dipicolylamine)-550, (PSVue®-550) (Molecular Targeting Technologies Inc, cat. P-1005) was reconstituted in Hanks’ Balanced Salt Solution (HBSS, Quality Biological, cat. 114-062-101) according to the manufacturer’s instructions[28],[36]. This probe is suitable for in vivo use to specifically and transiently label dying photoreceptors, such as in living rats with retinal degeneration the Royal College of Surgeons rat model, in a non-invasive and non-toxic method without the need of intraocular injection. Briefly, a stock of 1 mM solution of PSVue®-550 was stored in the dark at 4 °C and used within 14 days directly as eye drop. After 3-4 h of light onset each mouse received eye drops of 5–10 μl of 1 mM PSVue®-550 in the left eye and HBSS in the right eye as control. The eye drop volume was chosen such that the eye cavity was filled without spillage outside the eye, and it was modified depending on eye size. […] To obtain in vivo retinal images of fundi, at 24 h after the probe was administered, the mice were anesthetized, and pupils were dilated with 1% tropicamide for 5 min and kept hydrated with GenTeal. Fluorescence was imaged using a retinal imaging microscope (Micron III, Phoenix Research Labs) using an FF02- 475/50 nm excitation filter (Semrock, Inc.). We observed some variability in optic nerve (ON) fluorescence that could not be readily explained, so the optic nerve was excluded from analyses in all samples.
(§2) To determine the natural history of photoreceptor death of rd10 and rd10/Serpinf1^-/- mice, we assessed photoreceptor cell death in live mice using the fluorescent probe termed PSVue® 550 to monitor PS externalization by fluorescence fundoscopy (Supplementary Fig. 2). Given the reports about the retinas of rd10 mice starting to show histological changes at P16, and with a peak in the number of TUNEL+ nuclei in the ONL at P17-18[13], we monitored PS externalization in photoreceptors of these mice undergoing degeneration before death onset. Eye drops of 1 mM PSVue® 550 solution in HBSS were administered to left eyes and HBSS (vehicle) to their contralateral right eyes of each mouse at ages P16, P20, P22 or P24. PS externalization was determined by fluorescence fundoscopy 24 h post-administration. PSVue labeling of phosphatidylserine (PS) externalization associated with photoreceptor cell death in the rd10 retina (Supplementary Figs. 2, 3).
(§3) Fig. 2 Effect of PEDF peptide eye drops on protection against photoreceptor cell death in rd10 and rd10/Serpinf1^-/- mice. a Illustration of the experimental timeline of peptide application. Eye drops containing 5 µl of 17-mer, H105A, or R99A peptides in HBSS were administered daily to eyes of rd10 and rd10/Serpinf1^-/- mice from P15 to P20. Vehicle (HBSS) was applied in contralateral eyes. At P20, PSVue® was applied via eye drops, and fluorescence fundoscopy was conducted at P21 to assess photoreceptor cell death. RE and LE refer to the right and left eyes, respectively. b Fluorescence fundoscopy micrographs. Representative fluorescence fundoscopy images of retinas from mice treated as in Panel a with eyedrops of 1 mg/ml of each peptide. Quantification of fluorescence intensity was performed using ImageJ, with average intensity values corrected for background fluorescence from eyes that had not received PSVue or peptides. Each line represents data from one animal comparing treated and contralateral eyes, with five eyes (n = 5) per condition. Statistical significance was determined by paired t-test (****p ≤ 0.0001, and ns > 0.05). Scale bar = 0.5 mm. c Dose response of peptide eye drops. Representative fluorescence fundoscopy micrographs showing retinas treated with varying concentrations of 17-mer and H105A peptides (0.0 mg/ml to 1.0 mg/ml) in rd10 and rd10/Serpinf1^-/- mice. […]

[3] = tested on: photoreceptors of rd10/Serpinf1-/- mice; assay: as above; type: in vivo, mouse; details: daily eye drops 5 µl of 1 mg/ml from P15, PSVue-550 fundoscopy P21
Excerpt: as §1, §2, §3

Structure (SMILES) | affinity for PEDF-R [1] | PS externalization / photoreceptor cell death vs vehicle [2] | eye drop concentration effective in restraining PS externalization (as low as) ([2]; titration 0.0-1.0 mg/ml, daily eye drops) | PS externalization / photoreceptor cell death vs vehicle [3]
CC[C@H](C)[C@H](NC(=O)[C@H](CC(C)C)NC(=O)[C@H](CC(=O)O)NC(=O)[C@H](Cc1ccc(O)cc1)NC(=O)[C@H](Cc1ccc(O)cc1)NC(=O)[C@H](CC(C)C)NC(=O)[C@H](C)NC(=O)[C@H](CCCNC(=N)N)NC(=O)[C@H](C)NC(=O)[C@@H](NC(=O)[C@@H](NC(=O)[C@H](CO)NC(=O)[C@H](CCC(=O)O)NC(=O)[C@@H](NC(=O)[C@H](CCCNC(=N)N)NC(=O)[C@@H](N)CCC(N)=O)[C@@H](C)O)[C@@H](C)CC)[C@@H](C)CC)C(=O)N[C@@H](CO)C(=O)O [H105A] (H-QRTESIIARALYYDLIS-OH) | have affinity for PEDF-R | diminished fundi fluorescence | 0.5 mg/mL | diminished fundi fluorescence
CC[C@H](C)[C@H](NC(=O)[C@H](CC(C)C)NC(=O)[C@H](CC(=O)O)NC(=O)[C@H](Cc1ccc(O)cc1)NC(=O)[C@H](Cc1ccc(O)cc1)NC(=O)[C@H](CC(C)C)NC(=O)[C@H](C)NC(=O)[C@H](CCCNC(=N)N)NC(=O)[C@H](Cc1c[nH]cn1)NC(=O)[C@@H](NC(=O)[C@@H](NC(=O)[C@H](CO)NC(=O)[C@H](CCC(=O)O)NC(=O)[C@@H](NC(=O)[C@H](C)NC(=O)[C@@H](N)CCC(N)=O)[C@@H](C)O)[C@@H](C)CC)[C@@H](C)CC)C(=O)N[C@@H](CO)C(=O)O [R99A] (H-QATESIIHRALYYDLIS-OH) | lacks PEDF-R affinity | no major efficacy | – | no major efficacy
